Laboratory results from patent US20200188465A1, “TREATMENT OF CYTOKINE RELEASE SYNDROME BY DECREASING LEVEL OF PROINFLAMMATORY CYTOKINE” (Gwo Xi Stem Cell Applied Technology Co., Ltd., priority 2018, published 2020).

Experiments:
Type in all cases: cell-based, Human
Jurkat T cells = assay: Cell viability (MTS) of Jurkat T cells pre-stimulated with PMA plus ionomycin, then drug (Embodiment 1)
Procedure: (§1) Human Jurkat T cell line (Clone E6-1, ATCC TIB 152) and THP-1 were used in the embodiments and purchased from Bioresource Collection and Research Centre (BCRC), Taiwan. The cells were maintained in RPMI 1640 medium (Gibco, Carlsbad, Calif., USA) with 2 mM L-glutamine adjusted to contain 1.5 g/L sodium bicarbonate, 4.5 g/L glucose, 10 mM HEPES, 1.0 mM sodium pyruvate, 1% (v/v) penicillin-streptomycin (HyClone, Logan, Utah), and 10% (v/v) fetal bovine serum (FBS; HyClone). The cells were kept in the incubator with 5% CO2 at 37° C. The passages were performed when the cell density didn't allow the cell concentration to exceed 3×10^6 cells/mL.
(§2) Jurkat cells were seeded in 48-well culture plates at a density of 5.0×10^5 cells/mL in culture medium. To promote Interferon gamma (IFN-γ; IFNG) production, the cells were stimulated with or without the combination of PMA and Ionomycin in culture medium. THP-1 cells were treated with or without the LPS that promoted IL6 production.
The cell viability was determined using MTS reagent (Promega). Assays were performed by adding MTS to each well for 3 hours at 37° C. with 5% CO2. The amount of formazan converted by living cells, and then recording absorbance at 490 nm with a 96-well plate reader.
(§3) After 6 and 24 hours, the supernatants were collected for cell viability analysis and cytokine analysis. The concentration of cytokine was measured by Human IFN-γ ELISA kit (Invitrogen) according to the manufacturers.

IFN-γ = IFN-γ release (ELISA) of Jurkat T cells pre-stimulated with PMA plus ionomycin, then drug (Embodiment 1); details: Jurkat pretreated PMA + ionomycin
Procedure: as §1, §2
The culture supernatants were harvested by centrifugation and stored at −20° C. for cytokine analysis. The concentration of IFN-γ and IL6 were measured by ELISA kit (Invitrogen, Carlsbad, Calif., USA) according to the manufacturer's instructions.
as §3

THP-1 cells = assay: Cell viability (MTS) of THP-1 cells pre-stimulated with LPS, then drug (Embodiment 2)
IL6 = IL6 release (ELISA) of THP-1 cells pre-stimulated with LPS, then drug (Embodiment 2); details: THP-1 pretreated LPS
Procedure: HyClone). […] The passages were performed when the cell density didn't allow the cell concentration to exceed 3×10^6 cells/mL. Jurkat cells were seeded in 48-well culture plates at a density of 5.0×10^5 cells/mL in culture medium. To promote Interferon gamma (IFN-γ; IFNG) production, the cells were stimulated with or without the combination of PMA and Ionomycin in culture medium. THP-1 cells were treated with or without the LPS that promoted IL6 production. The culture supernatants were harvested by centrifugation and stored at −20° C. for cytokine analysis. The concentration of IFN-γ and IL6 were measured by ELISA kit (Invitrogen, Carlsbad, Calif., USA) according to the manufacturer's instructions. […] The concentration of cytokine was measured by IL6 ELISA kit (Invitrogen) according to the manufacturers.

## CN1CCN(CCCN2c3ccccc3Sc3ccc(C(F)(F)F)cc32)CC1 [TFP, Trifluoperazine]
Jurkat T cells; drug 1 μM, 6 h, Jurkat pretreated PMA 0.01 μg/mL + ionomycin 1 μM 24 h
  Cell Viability (%): 91 ± 2%
Jurkat T cells; drug 1 μM, 24 h, Jurkat pretreated PMA + ionomycin
  Cell Viability (%): 72 ± 5%
Jurkat T cells; drug 5 μM, 6 h, Jurkat pretreated PMA + ionomycin
  Cell Viability (%): 88 ± 9%
Jurkat T cells; drug 5 μM, 24 h, Jurkat pretreated PMA + ionomycin
  Cell Viability (%): 70 ± 4%
Jurkat T cells; drug 10 μM, 6 h, Jurkat pretreated PMA + ionomycin
  Cell Viability (%): 86 ± 4%
Jurkat T cells; drug 10 μM, 24 h, Jurkat pretreated PMA + ionomycin
  Cell Viability (%): 72 ± 7%
IFN-γ; drug 1 μM, 6 h, IFN-γ normalized with cell viability
  IFN-γ/cell viability: 41.8 pg/mL
IFN-γ; drug 1 μM, 24 h
  IFN-γ/cell viability: 39.7 pg/mL
IFN-γ; drug 5 μM, 6 h
  IFN-γ/cell viability: 35.7 pg/mL
IFN-γ; drug 5 μM, 24 h
  IFN-γ/cell viability: 32.5 pg/mL
IFN-γ; drug 10 μM, 6 h
  IFN-γ/cell viability: 40.9 pg/mL
IFN-γ; drug 10 μM, 24 h
  IFN-γ/cell viability: 35.6 pg/mL
THP-1 cells; drug 1 μM, 6 h, THP-1 pretreated LPS 0.1 μg/mL 16 h
  Cell Viability (%): 63 ± 6%
THP-1 cells; drug 1 μM, 24 h, THP-1 pretreated LPS
  Cell Viability (%): 96 ± 9%
THP-1 cells; drug 5 μM, 6 h, THP-1 pretreated LPS
  Cell Viability (%): 75 ± 4%
THP-1 cells; drug 5 μM, 24 h, THP-1 pretreated LPS
  Cell Viability (%): 82 ± 9%
THP-1 cells; drug 10 μM, 6 h, THP-1 pretreated LPS
  Cell Viability (%): 71 ± 8%
THP-1 cells; drug 10 μM, 24 h, THP-1 pretreated LPS
  Cell Viability (%): 75 ± 8%
IL6; drug 1 μM, 6 h, IL6 normalized with cell viability
  IL6/cell viability: 43.9 pg/mL
IL6; drug 1 μM, 24 h
  IL6/cell viability: 42.8 pg/mL
IL6; drug 5 μM, 6 h
  IL6/cell viability: 35.6 pg/mL
IL6; drug 5 μM, 24 h
  IL6/cell viability: 33.9 pg/mL
IL6; drug 10 μM, 6 h
  IL6/cell viability: 32.5 pg/mL
IL6; drug 10 μM, 24 h
  IL6/cell viability: 38.4 pg/mL
